# Entries after “also recorded” stand apart in the source; their conditions may differ.
# Columns and labels:
# Format in all cases: physicochemical
# [1] = Thermal stability test of crystal of compound (1) (change in content of compound (E-3) on heating); details: for Content (Y) of compound (E-3) measured after test: after heating of the crystal at 70° C. for 192 hours; for Content (Y) of compound (E-3) measured after test / Content (X) of compound (E-3) measured before test: HPLC peak area ratio, 225 nm; for Content (X) of compound (E-3) measured before test: before heating; for Thermal stability of the crystal (conclusion in words) / [Y−X] (difference between Y and X, increase in content of compound (E-3)): heating at 70° C. for 192 hours
# Method: In the present specification, a “γ-crystal with good stability” is identified by the thermal stability test described later and is one for which [Y−X] (i.e. a difference between Y and X) is less than 0.040% when the content of the compound (E-3) with respect to the total amount of the crystal is expressed as X % and the content of the compound (E-3) as measured after heating of the crystal at 70° C. for 192 hours is expressed as Y %. The crystal structure of the indoline compound is determined using a powder X-ray diffractometer.
# The thermal stability test is a test for evaluating a change in the content of the compound (E-3) in the γ-crystal of the compound (1) caused when the crystal is heated at 70° C. for 192 hours. The pre-test content X (%) of the compound (E-3) with respect to the total amount of the crystal and the post-heating content Y (%) of the compound (E-3) with respect to the total amount of the crystal are measured, and the amount of change is calculated by the formula Y−X and expressed as [Y−X]. The content of the compound (E-3) may be on a mass basis or a volume basis. To measure the content of the compound (E-3) with increased accuracy, the measurement may be performed using high-performance liquid chromatography (HPLC). When the content of the compound (E-3) is measured using HPLC, the content can be measured as a value obtained as follows: a peak area of a peak observed in a chromatogram and attributed to the compound (E-3) is divided by the sum of the peak areas of all the peaks.
# Compound analysis was performed in the same manner as in the above examples of step A, except that the measurement wavelength and the mobile phase were changed as follows.
# Measurement wavelength: 225 nm
# Mobile phase and measurement method: 1.0 g of ammonium formate and water were mixed to a volume of 1000 mL, and then 0.53 mL of formic acid was added to adjust the pH of the solution to 3.7. The measurement was performed as the volume ratio between the solution and acetonitrile was varied from 4:1 to 1:1.
# (§1) The content of the compound (E-3) was expressed as a value calculated as follows: a peak area of a peak observed in a chromatogram and attributed to the compound (E-3) was divided by the sum of peak areas of all peaks observed in the chromatogram.
# [2] = Photostability test of crystals of compound (1); details: 4000-lux light at 25° C., relative humidity 60%, 336 hours
# Method: as §1
# (§2) An α-crystal, a β-crystal, and a γ-crystal were produced, and each of them was subjected to a photostability test and a crushing stability test under the following conditions.
# Each crystal was left under irradiation of 4000-lux light at 25° C. and a relative humidity of 60% for 336 hours.
# [3] = Crushing stability test of crystals of compound (1) (crystal form after crushing); details: crushed in a mortar with a pestle
# Method: The γ-crystal of the compound (1) in the present specification may contain a solvent or the like in addition to the compound (1), as described in Patent Literature 3. In particular, “α-crystal”, “β-crystal”, and “γ-crystal” are each identified by a method described in Patent Literature 3 and, specifically, the identification is performed through measurement of powder X-ray diffraction.
# Analysis equipment: Powder X-ray diffractometer, RINT-TTR III (manufactured by Rigaku Corporation)
# as §2
# Each crystal was put in a mortal and crushed with a pestle.
Structure (SMILES),Content (Y) of compound (E-3) measured after test [1] [%],Content (X) of compound (E-3) measured before test [1] [%],Thermal stability of the crystal (conclusion in words) [1],"[Y−X] (difference between Y and X, increase in content of compound (E-3)) [1] [%]",Stability to light (conclusion in words) [2],Result of crushing stability test (phase transition) [3]
"C[C@H](Cc1cc2c(c(C(N)=O)c1)N(CCCO)CC2)NCCOc1ccccc1OCC(F)(F)F [Comparative Example C1, (−)-1-(3-hydroxypropyl)-5-[(2R)-2-({2-[2-(2,2,2-trifluoroethoxy)phenoxy]ethyl}amino)propyl]-2,3-dihydro-1H-indole-7-carboxamide, reference compound]",0.133,0.091,unstable,0.042,,
"C[C@H](Cc1cc2c(c(C(N)=O)c1)N(CCCO)CC2)NCCOc1ccccc1OCC(F)(F)F [Example C1, (−)-1-(3-hydroxypropyl)-5-[(2R)-2-({2-[2-(2,2,2-trifluoroethoxy)phenoxy]ethyl}amino)propyl]-2,3-dihydro-1H-indole-7-carboxamide]",0.044,0.043,stable,0.001,,
"C[C@H](Cc1cc2c(c(C(N)=O)c1)N(CCCO)CC2)NCCOc1ccccc1OCC(F)(F)F [Example C2, (−)-1-(3-hydroxypropyl)-5-[(2R)-2-({2-[2-(2,2,2-trifluoroethoxy)phenoxy]ethyl}amino)propyl]-2,3-dihydro-1H-indole-7-carboxamide]",0.088,0.076,stable,0.012,,
"C[C@H](Cc1cc2c(c(C(N)=O)c1)N(CCCO)CC2)NCCOc1ccccc1OCC(F)(F)F [Example C3, (−)-1-(3-hydroxypropyl)-5-[(2R)-2-({2-[2-(2,2,2-trifluoroethoxy)phenoxy]ethyl}amino)propyl]-2,3-dihydro-1H-indole-7-carboxamide]",0.097,0.071,stable,0.026,,
"C[C@H](Cc1cc2c(c(C(N)=O)c1)N(CCCO)CC2)NCCOc1ccccc1OCC(F)(F)F [Example C4, (−)-1-(3-hydroxypropyl)-5-[(2R)-2-({2-[2-(2,2,2-trifluoroethoxy)phenoxy]ethyl}amino)propyl]-2,3-dihydro-1H-indole-7-carboxamide]",0.091,0.067,stable,0.024,,
"C[C@H](Cc1cc2c(c(C(N)=O)c1)N(CCCO)CC2)NCCOc1ccccc1OCC(F)(F)F [α-crystal, (−)-1-(3-hydroxypropyl)-5-[(2R)-2-({2-[2-(2,2,2-trifluoroethoxy)phenoxy]ethyl}amino)propyl]-2,3-dihydro-1H-indole-7-carboxamide]",,,,,the most unstable,transformed into a γ-crystal; also recorded: the most unstable
"C[C@H](Cc1cc2c(c(C(N)=O)c1)N(CCCO)CC2)NCCOc1ccccc1OCC(F)(F)F [β-crystal, (−)-1-(3-hydroxypropyl)-5-[(2R)-2-({2-[2-(2,2,2-trifluoroethoxy)phenoxy]ethyl}amino)propyl]-2,3-dihydro-1H-indole-7-carboxamide]",,,,,,phase transition was not observed
"C[C@H](Cc1cc2c(c(C(N)=O)c1)N(CCCO)CC2)NCCOc1ccccc1OCC(F)(F)F [γ-crystal, (−)-1-(3-hydroxypropyl)-5-[(2R)-2-({2-[2-(2,2,2-trifluoroethoxy)phenoxy]ethyl}amino)propyl]-2,3-dihydro-1H-indole-7-carboxamide]",,,,,good stability to light,phase transition was not observed; also recorded: does not undergo phase transition even when subjected to crushing

# Source: US9932308B2, “Method for producing indoline compound” (UBE INDUSTRIES, LTD., priority 2014, dated 2018)
